Article PMC10744269, “Frentizole, a Nontoxic Immunosuppressive Drug, and Its Analogs Display Antitumor Activity via Tubulin Inhibition” (International Journal of Molecular Sciences, 2023)

Columns and labels:
[1] = system: U87 MG (human glioblastoma); assay: MTT antiproliferative assay, U-87 MG; format: cell-based; settings: 72 h after drug treatment, threshold 10 μM
Procedure: (§1) The cell proliferation inhibitory activity of frentizole and the synthesized analogs 2–10 against representative human cancer cell lines was assayed using the MTT method (Table 1). […] For those compounds inhibiting cell proliferation by more than 40% with respect to the untreated controls at the threshold concentration, the IC50 values were calculated by measuring the proliferation inhibition in a range of concentrations from 100 to 0.001 μM and adjusting the resulting curves to sigmoidal dose–response curves. The selected cell lines were HeLa (cervix epithelioid carcinoma cells), one of the most frequent kinds of cancer, with good sensitivity against antimitotic agents, and the glioblastoma cell lines U87MG and A172. To study the selectivity of the compounds toward cancer cells versus nontumor cells, the compounds were also evaluated against the nontumorigenic cell line HEK-293 (human embryonic kidney cells) and the murine macrophage cell line J774. Sulfonamide ABT-751, as a representative of the colchicine-site ligands, and the first-line drug for the treatment of glioblastoma multiforme temozolomide (TMZ) were used as reference compounds.
(§2) The cell lines were from ATTC (Manassas, VA, USA). HeLa (human cervix epithelioid carcinoma), U87 MG (human glioblastoma), A172 (human glioblastoma), and HEK-293 (human embryonic kidney) were grown in Dulbecco’s modified Eagle’s medium (DMEM, Gibco, Waltham, MA, USA), supplemented with 10% (v/v) heat-inactivated fetal bovine serum (HIFBS, Sigma-Aldrich, St. Louis, MO, USA), 2 mM L-glutamine, 100 μg/mL streptomycin, and 100 units/mL penicillin (Gibco, Waltham, MA, USA) at 37 °C in humidified 95% air and 5% CO2. The cells were periodically tested for Mycoplasma infection using MycoAlert kit (Lonza, Norwest, Australia), and only mycoplasma-free cells were employed in the experiments.
(§3) The effect of the compounds on the proliferation of human tumor cell lines was determined as previously described using the MTT reagent 3-[4,5-dimethylthiazol-2-yl]-2,5-diphenyltetrazolium bromide, MTT Thiazolyl Blue Tetrazolium Bromide, Sigma-Aldrich, St. Louis, MO, USA) dissolved in PBS at 5 mg/mL, according to the manufacturer’s instructions. The cells were incubated in 96-well plates (100 μL/well), in complete DMEM or RPMI 1640 medium (see above), at 37 °C and 5% CO2 atmosphere for 24 h to allow for cell attachment to the plate at the following concentrations: 30,000 cells/mL (U87MG, A172, J774, and HEK-293 cells) or 15,000 cells/mL (HeLa cells). Then, every compound was added (10 μL/well) to a final concentration of 10 μM. Untreated cells were used as negative controls. The antiproliferative activity of the compounds was measured 72 h after drug exposure using the MTT assay. The IC50 value (the drug concentration required to inhibit 50% of the cell growth in respect the untreated control) was determined for those compounds showing antiproliferative effects in the initial screening at 10 μM. For this purpose, the compounds were used at different concentrations ranging from 10^−10 to […]. Measurements were performed in triplicate and each experiment was repeated three times. The IC50 values were determined using Origin software (OriginLab, Washington, DC, USA).

[2] = system: HeLa cells; assay: Cell cycle analysis (PI staining, flow cytometry); format: cell-based, human; settings: 2 μM, 24-72 h
Procedure: To study the effects of the compounds on the cell cycle, cells were incubated for different times with the compounds and, thereafter, their DNA was stained using propidium iodide (PI) to allow for quantification by flow cytometry. […] The brominated ethyl BZTs (5b and 5f) were faster to show the subG0/G1 decrease, at 24 h, followed by an apparent stabilization of the G0/G1 population at 48 h, which abruptly fell at the 72 h time point.
HeLa cells (8 × 10^4 cells/mL) were seeded in 6-well plates (2 mL/well) and incubated in complete DMEM medium at 37 °C and 5% CO2 atmosphere for 24 h. Then, the medium was replaced with fresh complete DMEM in the presence or absence of the selected compounds (3ea, 5b, 5f, and frentizole 6e) at 2 μM. Untreated cells were used as negative controls. Cells were harvested 24, 48, or 72 h following treatment and fixed in ice-cold ethanol/PBS (7:3) overnight. The cells were then washed twice with PBS, suspended in PBS and incubated overnight in darkness with 0.2 mg/mL RNase A (Sigma-Aldrich, St. Louis, MO, USA), 50 μg/mL propidium iodide (Sigma-Aldrich, St. Louis, MO, USA), and Triton 10× at room temperature. A BD Accuri™ C6 Plus Flow Cytometer (BD Bioscience, Madrid, Spain) was used to analyze samples, and BD Accuri™ C6 Software (version 1.0.264.21) was used for data analysis.

[3] = system: A172 (human glioblastoma); assay: MTT antiproliferative assay, A-172; format: cell-based; settings: 72 h after drug treatment, threshold 10 μM
Procedure: as §1, §2, §3

[4] = system: Survival motor neuron protein; design: method as in SuperPred [40]; settings: Table S2, CHEMBL1293232; ref SuperPred [40]; cited from earlier work
[5] = system: Ras-related protein Rab-9A; design: method as in SuperPred [40]; settings: Table S2, CHEMBL1293294; ref SuperPred [40]; cited from earlier work
[6] = system: nontumorigenic cell line HEK-293 (human embryonic kidney cells); assay: MTT antiproliferative assay, HEK-293; format: cell-based; settings: HEK293, 72 h after drug treatment, threshold 10 μM
Procedure: as §1, §2, §3

[7] = system: HeLa (cervix epithelioid carcinoma cells); assay: MTT antiproliferative assay, HeLa; format: cell-based, human; settings: for IC50: Homo sapiens, HeLa
Procedure: as §1, §2, §3

[8] = system: murine macrophage cell line J774; assay: MTT antiproliferative assay, J774; format: cell-based; settings: Mus musculus, 72 h after drug treatment, threshold 10 μM, read-out: IC50 J-774
Procedure: as §1, §3

[9] = system: microtubule network of HeLa cells; assay: Immunofluorescence confocal microscopy of cellular microtubules; format: cell-based, human; settings: 2 μM, 24 h
Procedure: Therefore, we studied the effect of the compounds after 24 h of treatment on the microtubule network of HeLa cells by immunofluorescence confocal microscopy (Figure 5) through α-tubulin and nuclei labeling. […] These morphological effects are typical of tubulin inhibitors. Again, the effects are more pronounced for 5b than for 3ea, frentizole, and 5f.
HeLa cells (8 × 10^4 cells/mL) were seeded on 0.01% poly-L-lysine precoated square glass coverslips (22 mm^2), deposited on 6-well plates (1 coverslip/well), and incubated in complete DMEM medium at 37 °C and 5% CO2 atmosphere. After 24 h the culture medium was replaced by fresh complete DMEM, and the cells were incubated in the presence of 2 μM or absence of the selected compounds (3ea, 5b, 5f, and frentizole 6e) for 24 h. Untreated cells were used as negative controls. Then the medium was removed, and the coverslips were washed three times with PBS, fixed in 4% formaldehyde in PBS for 10 min, permeabilized with 0.5% Triton X-100 (Sigma-Aldrich, St. Louis, MO, USA) in PBS for 90 s at 4 °C, blocked with 10% BSA in PBS for 30 min and washed four times with PBS. Then, the coverslips were incubated for 1 h with anti-α-tubulin mouse monoclonal antibody (Sigma-Aldrich, St. Louis, MO, USA, 1:200 in PBS containing 3% BSA). After four washes with PBS, the coverslips were incubated with fluorescent secondary antibody Alexa Fluor 488 goat anti-mouse IgG (Molecular Probes, Invitrogen, Eugenen, OR, USA, 1:400 in PBS containing 1% BSA) for 1.5 h in darkness. After four washes with PBS, a droplet of ProLong™ Gold Antifade Mountant containing DAPI (ThermoFisher, Waltham, MA, USA) was added for cell nuclei staining. The samples were analyzed via confocal microscopy using a LEICA SP5 microscope DMI-6000V model coupled to a LEICA LAS AF 4.0 software computer.

[10] = design: method as in PMID 24858403; settings: cited from earlier work
[11] = Solubility (remark); format: physicochemical
[12] = system: U87 MG (human glioblastoma); design: method as in PMID 37376146; settings: cited from earlier work
[13] = 72 h after drug treatment, threshold 10 μM

For `COc1ccc2nc(NC(=O)Nc3ccccc3)sc2c1` [Compound 6e, 1-(6-Methoxybenzo[d]thiazol-2-yl)-3-phenylurea, reference compound], the IC50 [1] was 7.33 µM, the “effect on the cell cycle populations (in words)” value ([2]; listed as Frentizole (6e)) was “progressive accumulation of cells in the G2/M population” and the “effect on the cell cycle populations (in words)” value ([2]; listed as frentizole) was “no increase in the subG0/G1 population was observed”. The IC50 [3] was over 10 µM, the “Min Activity (Assay type Potency)” value [4] was 891.3 nm and the “Min Activity (Assay type Potency)” value [5] was 707.9 nm. The IC50 [6] was 6.86 µM, the “activity against HeLa cells (in words)” value [7] was “significant activity” and the “IC50 HeLa” value [7, 13] was “low micromolar range”. For the same compound, the IC50 [7, 13] was 1 µM, the IC50 [8] was over 10 µM and the “effect on the microtubule network (in words)” value [9] was “severe microtubule network disruption”. For the same compound, the “blood–brain barrier crossing” value [10] was “able to cross the blood–brain barrier”.

For `COc1ccc2nc(N(C)C(=O)c3ccccc3)sc2c1` [Compound 3ea, N-(6-methoxybenzo[d]thiazol-2-yl)-N-methylbenzamide], the IC50 [1] was over 10 µM, the “effect on the cell cycle populations (in words)” value [2] was “weakest effect on the cell populations” and the IC50 [3] was over 10 µM. The IC50 [6] was over 10 µM, the “activity against HeLa cells (in words)” value [7] was “significant activity” and the IC50 [7, 13] was 0.74 µM. For the same compound, the IC50 [8] was over 10 µM and the “effect on the microtubule network (in words)” value [9] was “severe microtubule network disruption”.

In the case of `CCNC(=O)Nc1nc2c(Br)cc(OC)cc2s1` [Compound 5f, 1-(4-Bromo-6-methoxybenzo[d]thiazol-2-yl)-3-ethylurea], the IC50 [1] is reported as over 10 µM, the “effect on the cell cycle populations (in words)” value [2] is reported as “increase in the subG0/G1 population progressively occurs at the 48 h to 72 h timepoints” and the IC50 [3] is reported as over 10 µM. The IC50 [6] was over 10 µM, the “activity against HeLa cells (in words)” value [7] was “significant activity” and the IC50 [7, 13] was 0.7 µM. For the same compound, the IC50 [8] was over 10 µM and the “effect on the microtubule network (in words)” value [9] was “severe microtubule network disruption”.

Compound `CCNC(=O)Nc1nc2c(Br)c(C)c(C)cc2s1` [Compound 5d, 1-(4-Bromo-5,6-dimethylbenzo[d]thiazol-2-yl)-3-ethylurea] has an IC50 [1] of over 10 µM, an IC50 [3] of over 10 µM and an IC50 [6] of over 10 µM. The “solubility (in words)” value [11] was “very limited solubility”, the “activity against HeLa cells (in words)” value [7] was “significant activity” and the IC50 [7, 13] was 1.24 µM. For the same compound, the IC50 [8] was over 10 µM.

For `Cn1nnc2c(C(N)=O)ncn2c1=O` [temozolomide], the “in vitro IC50 against U87MG” value [12] is listed as “millimolar range”.

In the case of `CCNC(=O)Nc1nc2c(Br)cc(C)cc2s1` [Compound 5b, 1-(4-Bromo-6-methylbenzo[d]thiazol-2-yl)-3-ethylurea], the IC50 [1] is reported as over 10 µM, the “effect on the cell cycle populations (in words)” value [2] is reported as “arrest at G2/M in the 24 to 48 h period” and the IC50 [3] is reported as over 10 µM. For the same compound, the IC50 [6] was over 10 µM, the “activity against HeLa cells (in words)” value [7] was “significant activity” and the IC50 [7, 13] was 0.49 µM. The IC50 [8] was over 10 µM and the “effect on the microtubule network (in words)” value [9] was “severe microtubule network disruption”.
